# Assay results: US20130164384A1, “METHODS OF TREATING BOWEL DISEASES BY ADMINISTERING A BOWEL CLEANSER AND AN ANTIBIOTIC” (Salix Pharmaceuticals, Ltd., priority 2008, published 2013)
# System: subjects diagnosed with dIBS
# Assay: Designed study of 14-day oral rifaximin 550 mg TID for adequate relief of dIBS symptoms over four weeks
# Type: in vivo, human
# Conditions: oral 550 mg TID, 14-day course; 4 week study duration
# Protocol: A study is designed to evaluate the efficacy of a 14-day course of oral rifaximin at 550 mg TID in providing adequate relief from diarrhea-associated IBS (dIBS) symptoms over four weeks. The study populations includes subjects diagnosed with dIBS according to Rome III criteria utilizing the subtype for dIBS from the Rome II criteria. Subjects have a mean abdominal pain and discomfort score <4.5, a mean bloating score of <4.5 and a mean stool score (loose and watery)<3.5 for at least 7 of the 10 days during screening. A measure of efficacy is based on subjects' answers to the Weekly Subject Global Assessment (SGA) questions over the 4 week study duration in relation to their IBS symptoms. The SGA question is asked weekly as follows: “In the past 7 days, have you had adequate relief of your IBS symptoms?” (Yes/No.) It is discovered that Subjects in the treatment group taking oral rifaximin respond “Yes” more often than Subjects who are not taking oral rifaximin. Another measure of efficacy is based on subjects' answers to the Weekly Subject Global Assessment (SGA) question over the 4 week study duration in relation to their IBS symptom of bloating. The SGA question is asked weekly as follows: “In the past 7 days, have you had adequate relief of your IBS symptom of bloating?” (Yes/No). […]
compound,measurement,value
"COC1/C=C/OC2(C)Oc3c(C)c(O)c4c(O)c(c5c(nc6cc(C)ccn65)c4c3C2=O)NC(=O)/C(C)=C\C=C\C(C)C(O)C(C)C(O)C(C)C(OC(C)=O)C1C [RFX, (2S,16Z,18E,20S,21S,22R,23R,24R,25S,26S,27S,28E)-5,6,21,23,25 Pentahydroxy-27-methoxy-2,4,11,16,20,22,24,26-octamethyl-2,7-(epoxypentadeca-(1,11,13)trienimino)benzofuro(4,5-e)pyrido(1,2,-a)benzimidazole-1,15(2H)-dione,25-acetate]","""Yes"" responses to weekly SGA question on adequate relief of IBS symptom of bloating versus subjects not taking rifaximin",more often
same,"""Yes"" responses to weekly SGA question on adequate relief of IBS symptoms versus subjects not taking rifaximin",more often
